Where two headings read alike, the source gives them in different places.
Legend:
[1] = tested on: HL-60 (acute myeloid leukemia); assay: MTS proliferation assay, HL-60; conditions: Homo sapiens, HL-60, 72 h, read-out: Anti-Proliferative Activity (IC50) HL-60
[2] = tested on: K-562 (chronic myeloid leukemia); assay: MTS proliferation assay, K-562; conditions: Homo sapiens, K562, 72 h, read-out: Anti-Proliferative Activity (IC50) K-562
[3] = tested on: Z-138 (non-Hodgkin lymphoma); assay: MTS proliferation assay, Z-138; conditions: Homo sapiens, Z-138, 72 h, read-out: Anti-Proliferative Activity (IC50) Z-138
LN-229 (glioblastoma) = assay: MTS proliferation assay, LN-229; conditions: Homo sapiens, LN-229, 72 h, read-out: Anti-Proliferative Activity (IC50) LN-229
[4] = tested on: DND-41 (acute lymphoblastic leukemia); assay: MTS proliferation assay, DND-41; conditions: Homo sapiens, DND41, 72 h, read-out: Anti-Proliferative Activity (IC50) DND-41
[5] = tested on: Capan-1 (pancreatic adenocarcinoma); assay: MTS proliferation assay, Capan-1; conditions: Homo sapiens, CAPAN-1, 72 h, read-out: Anti-Proliferative Activity (IC50) Capan-1
[6] = tested on: HCT-116 (colorectal carcinoma); assay: MTS proliferation assay, HCT-116; conditions: Homo sapiens, HCT-116, 72 h, read-out: Anti-Proliferative Activity (IC50) HCT-116
[7] = tested on: NCI-H460 (lung carcinoma); assay: MTS proliferation assay, NCI-H460; conditions: Homo sapiens, NCI-H460, 72 h, read-out: Anti-Proliferative Activity (IC50) NCI-H460
HCoV-229E = assay: Antiviral CPE reduction assay, HCoV-229E in HEL299 cells; format: cell-based, human coronavirus 229E; conditions: Human coronavirus 229E, HEL 299, MTS, mean ± SD of two or three independent experiments
HCoV-OC43 = assay: Antiviral CPE reduction assay, HCoV-OC43 in HEL299 cells; format: cell-based, human coronavirus OC43; conditions: Betacoronavirus 1, OC43, HEL 299, MTS, mean ± SD of two or three independent experiments
HCoV-NL63 = assay: Antiviral CPE reduction assay, HCoV-NL63 in Hep3B cells; format: cell-based, human coronavirus NL63; conditions: Human coronavirus NL63, MTS, mean ± SD of two or three independent experiments
[8] = tested on: influenza A/H1N1 (A/Ned/378/05); assay: Antiviral CPE reduction assay, influenza A/H1N1 in MDCK cells; format: cell-based, influenza A virus; conditions: Influenza A virus, read-out: Antiviral Activity (EC50) Influenza H1N1
[9] = tested on: influenza A/H3N2 (A/HK/7/87); assay: Antiviral CPE reduction assay, influenza A/H3N2 in MDCK cells; format: cell-based, influenza A virus; conditions: Influenza A virus, read-out: Antiviral Activity (EC50) Influenza H3N2
[10] = tested on: influenza B (B/Ned/537/05); assay: Antiviral CPE reduction assay, influenza B in MDCK cells; format: cell-based, influenza B virus; conditions: Influenza B virus, MDCK, read-out: Antiviral Activity (EC50) Influenza B
[11] = tested on: respiratory syncytial virus A (RSV A Long); assay: Antiviral CPE reduction assay, RSV A Long in Hep2 cells; format: cell-based; conditions: human respiratory syncytial virus
[12] = tested on: herpes simplex virus-1 (HSV-1 KOS); assay: Antiviral CPE reduction assay, HSV-1 KOS in HEL299 cells; format: cell-based; conditions: Human alphaherpesvirus 1, HEL 299, MTS, mean ± SD, no unit printed on the supplement page (Table 2 of the same screen is in µM)
[13] = tested on: yellow fever virus (YFV 17D); assay: microbe, parasite or virus in culture; format: cell-based; conditions: Yellow fever virus, Vero C1008, read-out: Antiviral activity (EC50) YFV 17D
Zika virus (ZikV mr766) = assay: Antiviral CPE reduction assay, Zika virus mr766 in VeroE6 cells; format: cell-based; conditions: Zika virus, Vero C1008, MTS, mean ± SD, no unit printed on the supplement page (Table 2 of the same screen is in µM)
in vitro [14] = conditions: dog
in vitro [15] = conditions: African green monkey
in vitro [16] = conditions: human
in vitro [17] = conditions: human; remark: listed apart in the source
in vitro [18] = conditions: human; remark: listed apart in the source
[19] = H1N1, MDCK cells, CPE reduction, MTS, mean ± SD of two or three independent experiments
[20] = H3N2, MDCK cells, CPE reduction, MTS, mean ± SD of two or three independent experiments
[21] = HEp-2, Hep2 cells, CPE reduction, MTS, mean ± SD of two or three independent experiments, read-out: Antiviral Activity (EC50) RSV A Long
[22] = HEp-2, read-out: Antiviral Activity (EC50) RSV A Long

Compound	IC50 [1] [µM]	IC50 [2] [µM]	IC50 [3] [µM]	IC50 (LN-229 (glioblastoma)) [µM]	IC50 [4] [µM]	IC50 [5] [µM]	IC50 [6] [µM]	IC50 [7] [µM]	EC50 (HCoV-229E) [µM]	EC50 (HCoV-OC43) [µM]	EC50 (HCoV-NL63) [µM]	EC50 [8, 19] [µM]	EC50 [9, 20] [µM]	EC50 [10] [µM]	EC50 [11, 21] [µM]	EC50 [12] [µM]	EC50 [13] [µM]	EC50 (Zika virus (ZikV mr766)) [µM]	CC50 (in vitro [14]) [µM]	CC50 (in vitro [15]) [µM]	further results
COc1cc([C@@H]2c3cc4c(cc3[C@@H](O[C@@H]3O[C@@H]5CO[C@@H](C)O[C@H]5[C@H](O)[C@H]3O)[C@H]3COC(=O)[C@H]23)OCO4)cc(OC)c1O [Etoposide, etoposide, reference compound]	0.2 ± 0.01	6 ± 2	0.08 ± 0.03	3 ± 0.2	0.1 ± 0.02	0.1 ± 0.03	1.4 ± 0.09	2.2 ± 0.8	–	–	–	–	–	–	–	–	–	–	–	–	–
C#Cc1cccc(Nc2ncnc3nc(NCCN(CC)CC)ncc23)c1 [Compound 7i, N^2-[2-(diethylamino)ethyl]-N^5-(3-ethynylphenyl)pyrimido[4,5-d]pyrimidine-2,5-diamine]	> 100	51.8 ± 3.5	62.1 ± 0.8	> 100	62.6 ± 0.1	> 100	> 100	> 100	19.3 ± 6.6	≥ 39.8	> 50	> 50	> 50	> 50	> 50	> 50	> 50	> 50	> 50	> 50	–
NC(=O)c1ncn([C@@H]2O[C@H](CO)[C@@H](O)[C@H]2O)n1 [Ribavirin, ribavirin, reference compound]	–	–	–	–	–	–	–	–	38.9 ± 1.7	100 ± 19	39.9 ± 7.1	–	–	7.4 ± 0.8	–	–	24.5	104	> 250	> 250	EC50 ([8]; H1N1, MDCK): 9.6 ± 1 µM; EC50 ([9]; H3N2, MDCK): 7.2 ± 1.6 µM; EC50 [11, 22]: 35.9 ± 1.3 µM
C#Cc1cccc(Nc2ncnc3cc(OCCOC)c(OCCOC)cc23)c1 [Erlotinib, erlotinib, reference compound]	10.7 ± 0.1	> 100	> 100	> 100	> 100	18.6 ± 1.1	> 100	> 100	22.5 ± 10	> 100	> 100	> 100	> 100	> 100	> 100	> 100	> 100	> 100	> 100	> 100	CC50 (in vitro [16]): > 100 µM; CC50 (in vitro [17]): > 100 µM; CC50 (in vitro [18]): > 100 µM
CCC(CC)COC(=O)[C@H](C)N[P@](=O)(OC[C@H]1O[C@@](C#N)(c2ccc3c(N)ncnn23)[C@H](O)[C@@H]1O)Oc1ccccc1 [Remdesivir, remdesivir, reference compound]	–	–	–	–	–	–	–	–	0.05 ± 0.04	0.14 ± 0.007	0.14 ± 0.04	–	–	–	0.008 ± 0.001	–	–	–	–	–	CC50 (in vitro [16]): > 10 µM
CC(N)C12CC3CC(CC(C3)C1)C2 (centres unmarked) [Rimantadine, rimantadine, reference compound]	–	–	–	–	–	–	–	–	–	–	–	1.7 ± 0.5	0.6 ± 0.07	> 100	–	–	–	–	> 100	–	–
C#Cc1cccc(Nc2ncnc3cc(OCCOC)c(OCCO)cc23)c1 [OSI-420, reference compound]	> 100	> 100	> 100	> 100	> 100	41.7 ± 3.6	> 100	> 100	> 100	> 100	> 100	–	–	> 100	–	> 100	> 100	> 100	> 100	> 100	EC50 ([8]; H1N1, MDCK): > 100 µM; EC50 ([9]; H3N2, MDCK): > 100 µM; EC50 [11, 22]: > 100 µM
CC(=O)N[C@H]1[C@H]([C@H](O)[C@H](O)CO)OC(C(=O)O)=C[C@@H]1N=C(N)N [Zanamivir, zanamivir, reference compound]	–	–	–	–	–	–	–	–	–	–	–	0.6 ± 0.3	3 ± 0.2	0.4 ± 0.01	–	–	–	–	> 100	–	–
